Measurements taken from patent US12065442B2, “Tropomyosin receptor kinase (TRK) degradation compounds and methods of use” (Cullgen (Shanghai), Inc., priority 2018, dated 2024).
pIC50: −log10 of the molar value.

These compounds were tested on KM12 cells (assay: Cell viability assay (CellTiter-Glo) in KM12 cells). Details: Homo sapiens, 72 h; Table 4; KM12 cell viability, CellTiter-Glo, 3 days; read-out: IC50.
Format: cell-based

Row | SMILES | pIC50
1 | Cn1c(=O)n(C2CCC(=O)NC2=O)c2cccc(NCCCN3CCN(c4cccc(-c5cnc6ccc(N7CCC[C@@H]7c7cccc(F)c7)nn56)n4)CC3)c21 (stereo partly drawn) [TR-217, 3-[4-[3-[4-[6-[6-[(2R)-2-(3-Fluorophenyl)pyrrolidin-1-yl]imidazo[1,2-b]pyridazin-3-yl]-2-pyridyl]piperazin-1-yl]propylamino]-3-methyl-2-oxo-benzimidazol-1-yl]piperidine-2,6-dione] | 8.40
2 | O=C1CCC(N2Cc3cc(NCC4CCN(c5cccc(-c6cnc7ccc(N8CCC[C@@H]8c8cccc(F)c8)nn67)n5)CC4)ccc3C2=O)C(=O)N1 (stereo partly drawn) [TR-218, 3-(5-(((1-(6-(6-((R)-2-(3-Fluorophenyl)pyrrolidin-1-yl)imidazo[1,2-b]pyridazin-3-yl)pyridin-2-yl)piperidin-4-yl)methyl)amino)-1-oxoisoindolin-2-yl)piperidine-2,6-dione] | 7.82
3 | O=C1CCC(N2Cc3cc(C#CC4CN(c5cccc(-c6cnc7ccc(N8CCC[C@@H]8c8cccc(F)c8)nn67)n5)C4)ccc3C2=O)C(=O)N1 (stereo partly drawn) [TR-219, 3-(5-((1-(6-(6-((R)-2-(3-Fluorophenyl)pyrrolidin-1-yl)imidazo[1,2-b]pyridazin-3-yl)pyridin-2-yl)azetidin-3-yl)ethynyl)-1-oxoisoindolin-2-yl)piperidine-2,6-dione] | 7.35
4 | Cn1c(=O)n(C2CCC(=O)NC2=O)c2ccc(NCCN3CCN(c4cccc(-c5cnc6ccc(N7CCC[C@@H]7c7cccc(F)c7)nn56)n4)CC3)cc21 (stereo partly drawn) [TR-220, 3-(5-((2-(4-(6-(6-((R)-2-(3-Fluorophenyl)pyrrolidin-1-yl)imidazo[1,2-b]pyridazin-3-yl)pyridin-2-yl)piperazin-1-yl)ethyl)amino)-3-methyl-2-oxo-2,3-dihydro-1H-benzo[d]imidazol-1-yl)piperidine-2,6-dione] | 8.26
5 | Cn1c(=O)n(C2CCC(=O)NC2=O)c2ccc(NCCCN3CCN(c4cccc(-c5cnc6ccc(N7CCC[C@@H]7c7cccc(F)c7)nn56)n4)CC3)cc21 (stereo partly drawn) [TR-221, 3-(5-((3-(4-(6-(6-((R)-2-(3-Fluorophenyl)pyrrolidin-1-yl)imidazo[1,2-b]pyridazin-3-yl)pyridin-2-yl)piperazin-1-yl)propyl)amino)-3-methyl-2-oxo-2,3-dihydro-1H-benzo[d]imidazol-1-yl)piperidine-2,6-dione] | 8.07
6 | O=C1CCC(N2C[C@H](c3cccc(C#CCN4CCN(c5cccc(-c6cnc7ccc(N8CCC[C@@H]8c8cccc(F)c8)nn67)n5)CC4)c3)OC2=O)C(=O)N1 (stereo partly drawn) [TR-223, 3-((S)-5-(3-(3-(4-(6-(6-((R)-2-(3-Fluorophenyl)pyrrolidin-1-yl)imidazo[1,2-b]pyridazin-3-yl)pyridin-2-yl)piperazin-1-yl)prop-1-yn-1-yl)phenyl)-2-oxooxazolidin-3-yl)piperidine-2,6-dione] | 7.95
7 | O=C1CCC(N2C[C@H](c3ccc(C#CCN4CCN(c5cccc(-c6cnc7ccc(N8CCC[C@@H]8c8cccc(F)c8)nn67)n5)CC4)cc3)OC2=O)C(=O)N1 (stereo partly drawn) [TR-224, 3-((S)-5-(4-(3-(4-(6-(6-((R)-2-(3-Fluorophenyl)pyrrolidin-1-yl)imidazo[1,2-b]pyridazin-3-yl)pyridin-2-yl)piperazin-1-yl)prop-1-yn-1-yl)phenyl)-2-oxooxazolidin-3-yl)piperidine-2,6-dione] | 8.00
8 | O=C1CCC(N2C(=O)c3ccc(N4CCC(CN5CCN(c6cccc(-c7cnc8ccc(N9CCC[C@@H]9c9cccc(F)c9)nn78)n6)CC5)C4)cc3C2=O)C(=O)N1 (stereo partly drawn) [TR-225, 2-(2,6-Dioxopiperidin-3-yl)-5-(3-((4-(6-(6-((R)-2-(3-fluorophenyl)pyrrolidin-1-yl)imidazo[1,2-b]pyridazin-3-yl)pyridin-2-yl)piperazin-1-yl)methyl)pyrrolidin-1-yl)isoindoline-1,3-dione] | 8.06
9 | O=C1CCC(N2C(=O)c3ccc(N4CCC(CN5CCN(c6cccc(-c7cnc8ccc(N9CCC[C@@H]9c9cccc(F)c9)nn78)n6)CC5)CC4)cc3C2=O)C(=O)N1 (stereo partly drawn) [TR-226, 2-(2,6-Dioxopiperidin-3-yl)-5-(4-((4-(6-(6-((R)-2-(3-fluorophenyl)pyrrolidin-1-yl)imidazo[1,2-b]pyridazin-3-yl)pyridin-2-yl)piperazin-1-yl)methyl)piperidin-1-yl)isoindoline-1,3-dione] | 7.86
10 | O=C1CCC(n2c(=O)n(CCN3CCN(c4cccc(-c5cnc6ccc(N7CCC[C@@H]7c7cccc(F)c7)nn56)n4)CC3)c3ccccc32)C(=O)N1 (stereo partly drawn) [TR-227, 3-(3-(2-(4-(6-(6-((R)-2-(3-Fluorophenyl)pyrrolidin-1-yl)imidazo[1,2-b]pyridazin-3-yl)pyridin-2-yl)piperazin-1-yl)ethyl)-2-oxo-2,3-dihydro-1H-benzo[d]imidazol-1-yl)piperidine-2,6-dione] | 7.63
11 | O=C1CCC(n2c(=O)n(CCCN3CCN(c4cccc(-c5cnc6ccc(N7CCC[C@@H]7c7cccc(F)c7)nn56)n4)CC3)c3ccccc32)C(=O)N1 (stereo partly drawn) [TR-228, 3-(3-(3-(4-(6-(6-((R)-2-(3-Fluorophenyl)pyrrolidin-1-yl)imidazo[1,2-b]pyridazin-3-yl)pyridin-2-yl)piperazin-1-yl)propyl)-2-oxo-2,3-dihydro-1H-benzo[d]imidazol-1-yl)piperidine-2,6-dione] | 7.25
12 | O=C1CCC(N2C[C@H](c3ccc(CN4CCN(c5cccc(-c6cnc7ccc(N8CCC[C@@H]8c8cccc(F)c8)nn67)n5)CC4)cc3)OC2=O)C(=O)N1 (stereo partly drawn) [TR-229, 3-((S)-5-(4-((4-(6-(6-((R)-2-(3-Fluorophenyl)pyrrolidin-1-yl)imidazo[1,2-b]pyridazin-3-yl)pyridin-2-yl)piperazin-1-yl)methyl)phenyl)-2-oxooxazolidin-3-yl)piperidine-2,6-dione] | 7.29
13 | O=C1CCC(N2C(=O)c3ccc(N4CC(CN5CCC(N6CCC=C(c7cnc8ccc(N9CCC[C@@H]9c9cccc(F)c9)nn78)C6)CC5)C4)cc3C2=O)C(=O)N1 (stereo partly drawn) [TR-230, 2-(2,6-Dioxopiperidin-3-yl)-5-(3-((4-(5-(6-((R)-2-(3-fluorophenyl)pyrrolidin-1-yl)imidazo[1,2-b]pyridazin-3-yl)-3,6-dihydropyridin-1(2H)-yl)piperidin-1-yl)methyl)azetidin-1-yl)isoindoline-1,3-dione] | < 6.30
14 | O=C1CCC(N2C(=O)c3ccc(N4CC(CN5CCN(c6ccc(C(=O)Nc7n[nH]c8ccc(Cc9cc(F)cc(F)c9)cc78)c(NC7CCOCC7)c6)CC5)C4)cc3C2=O)C(=O)N1 (stereo not drawn) [TR-231, N-(5-(3,5-Difluorobenzyl)-1H-indazol-3-yl)-4-(4-((1-(2-(2,6-dioxopiperidin-3-yl)-1,3-dioxoisoindolin-5-yl)azetidin-3-yl)methyl)piperazin-1-yl)-2-((tetrahydro-2H-pyran-4-yl)amino)benzamide] | 8.52
15 | O=C1CCC(N2C(=O)c3ccc(NCCN4CCN(c5ccc(C(=O)Nc6n[nH]c7ccc(Cc8cc(F)cc(F)c8)cc67)c(NC6CCOCC6)c5)CC4)cc3C2=O)C(=O)N1 (stereo not drawn) [TR-232, N-(5-(3,5-Difluorobenzyl)-1H-indazol-3-yl)-4-(4-(2-((2-(2,6-dioxopiperidin-3-yl)-1,3-dioxoisoindolin-5-yl)amino)ethyl)piperazin-1-yl)-2-((tetrahydro-2H-pyran-4-yl)amino)benzamide] | 8.59
16 | O=C1CCC(N2C(=O)c3ccc(NC(=O)CN4CCN(c5cccc(-c6cnc7ccc(N8CCC[C@@H]8c8cccc(F)c8)nn67)n5)CC4)cc3C2=O)C(=O)N1 (stereo partly drawn) [TR-233, N-(2-(2,6-Dioxopiperidin-3-yl)-1,3-dioxoisoindolin-5-yl)-2-(4-(6-(6-((R)-2-(3-fluorophenyl)pyrrolidin-1-yl)imidazo[1,2-b]pyridazin-3-yl)pyridin-2-yl)piperazin-1-yl)acetamide] | 8.30
17 | O=C1CCC(N2C[C@H](c3cccc(CN4CCN(c5cccc(-c6cnc7ccc(N8CCC[C@@H]8c8cccc(F)c8)nn67)n5)CC4)c3)OC2=O)C(=O)N1 (stereo partly drawn) [TR-235, 3-((S)-5-(3-((4-(6-(6-((R)-2-(3-Fluorophenyl)pyrrolidin-1-yl)imidazo[1,2-b]pyridazin-3-yl)pyridin-2-yl)piperazin-1-yl)methyl)phenyl)-2-oxooxazolidin-3-yl)piperidine-2,6-dione] | 8.48
18 | O=C1CCC(N2C(=O)Cc3c(NCCN4CCN(c5cccc(-c6cnc7ccc(N8CCC[C@@H]8c8cccc(F)c8)nn67)n5)CC4)cccc32)C(=O)N1 (stereo partly drawn) [TR-236, 3-(4-((2-(4-(6-(6-((R)-2-(3-Fluorophenyl)pyrrolidin-1-yl)imidazo[1,2-b]pyridazin-3-yl)pyridin-2-yl)piperazin-1-yl)ethyl)amino)-2-oxoindolin-1-yl)piperidine-2,6-dione] | 7.00
19 | O=C1CCC(N2C(=O)c3ccc(CN4CC(N5CCN(c6cccc(-c7cnc8ccc(N9CCC[C@@H]9c9cccc(F)c9)nn78)n6)CC5)C4)cc3C2=O)C(=O)N1 (stereo partly drawn) [TR-237, 2-(2,6-dioxopiperidin-3-yl)-5-((3-(4-(6-(6-((R)-2-(3-fluorophenyl)pyrrolidin-1-yl)imidazo[1,2-b]pyridazin-3-yl)pyridin-2-yl)piperazin-1-yl)azetidin-1-yl)methyl)isoindoline-1,3-dione] | 6.86
20 | Cn1c(=O)n(C2CCC(=O)NC2=O)c2cccc(C#CCCN3CCN(c4cccc(-c5cnc6ccc(N7CCC[C@@H]7c7cccc(F)c7)nn56)n4)CC3)c21 (stereo partly drawn) [TR-239, 3-(4-(4-(4-(6-(6-((R)-2-(3-fluorophenyl)pyrrolidin-1-yl)imidazo[1,2-b]pyridazin-3-yl)pyridin-2-yl)piperazin-1-yl)but-1-yn-1-yl)-3-methyl-2-oxo-2,3-dihydro-1H-benzo[d]imidazol-1-yl)piperidine-2,6-dione] | 7.34

Same assay, conditions: Homo sapiens, KM12, 72 h

Row | SMILES | pIC50
21 | Cn1c(=O)n(C2CCC(=O)NC2=O)c2cccc(C#CCN3CCN(c4cccc(-c5cnc6ccc(N7CCC[C@@H]7c7cccc(F)c7)nn56)n4)CC3)c21 (stereo partly drawn) [TR-238, 3-(4-(3-(4-(6-(6-((R)-2-(3-fluorophenyl)pyrrolidin-1-yl)imidazo[1,2-b]pyridazin-3-yl)pyridin-2-yl)piperazin-1-yl)prop-1-yn-1-yl)-3-methyl-2-oxo-2,3-dihydro-1H-benzo[d]imidazol-1-yl)piperidine-2,6-dione] | 7.80
